Test results from patent publication US20230093861A1, “RAPAMYCIN ANALOGS AS MTOR INHIBITORS” (Revolution Medicines, Inc., priority 2017, published 2023).
Where two headings read alike, the source gives them in different places.

What was measured:
P-Akt (S473) = assay: Cell based AlphaLISA assay, inhibition of P-Akt (S473) (mTORC2 substrate phosphorylation) in MDA-MB-468 cells; details: Homo sapiens, AlphaLISA, two to four hours at 37° C., read-out: pIC50 for Inhibition of mTORC1 and mTORC2 Substrate Phosphorylation, p-AKT 1/2/3 -(S473) (converted)
Protocol: (§1) Cell Based AlphaLISA Assays for Determining IC50 for Inhibition of P-Akt (S473), P-4E-BP1 (T37/46), and P-P70S6K (T389) in MDA-MB-468 Cells
(§2) mTOR Kinase Cellular Assay
(§3) To measure functional activity of mTORC1 and mTORC2 in cells the phosphorylation of 4EBP1 (Thr37/46) and P70S6K (Thr389), and AKT1/2/3 (Ser473) was monitored using AlphaLisa SureFire Ultra Kits (Perkin Elmer). […] Incubations were terminated by removal of the assay buffer and addition of lysis buffer provided with the assay kit. Samples were processed according to the manufacturer's instructions. The Alpha signal from the respective phosphoproteins was measured in duplicate using a microplate reader (Envision, Perkin-Elmer or Spectramax M5, Molecular Devices). Inhibitor concentration response curves were analyzed using normalized IC50 regression curve fitting with control based normalization.

P-P70S6K (T389) = assay: Cell based AlphaLISA assay, inhibition of P-P70S6K (T389) (mTORC1 substrate phosphorylation) in MDA-MB-468 cells; details: Homo sapiens, 4 h, AlphaLISA, two to four hours at 37° C., read-out: pIC50 for Inhibition of mTORC1 and mTORC2 Substrate Phosphorylation, P-P70S6K-(T389) (converted)
Protocol: as §1, §2, §3

P-4E-BP1 (T37/46) = assay: Cell based AlphaLISA assay, inhibition of P-4E-BP1 (T37/46) (mTORC1 substrate phosphorylation) in MDA-MB-468 cells; details: Homo sapiens, AlphaLISA, two to four hours at 37° C., read-out: pIC50 for Inhibition of mTORC1 and mTORC2 Substrate Phosphorylation, P-4E-BP1-(T37/46) (converted)
Protocol: as §1, §2, §3

Compound: CO[C@H]1C[C@@H]2CC[C@@H](C)[C@@](O)(O2)C(=O)C(=O)N2CCCC[C@H]2C(=O)O[C@H]([C@H](C)C[C@@H]2CC[C@@H](OCCCCc3cn(CCOCCOCCOCCOCCOCCOCCOCCOCCC(=O)N4CCc5cc(Cn6nc(-c7ccc8oc(N)nc8c7)c7c(N)ncnc76)ccc5C4)nn3)[C@H](OC)C2)CC(=O)[C@H](C)/C=C(\C)[C@@H](O)[C@@H](OC)C(=O)[C@H](C)C[C@H](C)/C=C/C=C/C=C/1C [Example 88]
- IC50 (P-Akt (S473); 4 h): 3.16 to 31.6 nM
- IC50 (P-P70S6K (T389)): < 1 nM
- IC50 (P-4E-BP1 (T37/46); 4 h): < 3.16 nM

Compound: CO[C@H]1C[C@@H]2CC[C@@H](C)[C@@](O)(O2)C(=O)C(=O)N2CCCC[C@H]2C(=O)O[C@H]([C@H](C)C[C@@H]2CC[C@@H](OCCOCc3cn(CCOCCOCCOCCOCCOCCOCCOCCOCCC(=O)NCCCCn4nc(-c5ccc6oc(N)nc6c5)c5c(N(C)C)ncnc54)nn3)[C@H](OC)C2)CC(=O)[C@H](C)/C=C(\C)[C@@H](O)[C@@H](OC)C(=O)[C@H](C)C[C@H](C)/C=C/C=C/C=C/1C [Example 9]
- IC50 (P-Akt (S473); MDA-MB-468, 4 h): > 1000 nM
- IC50 (P-P70S6K (T389)): < 1 nM
- IC50 (P-4E-BP1 (T37/46); MDA-MB-468, 4 h): > 1000 nM

Compound: CO[C@H]1C[C@@H]2CC[C@@H](C)[C@@](O)(O2)C(=O)C(=O)N2CCCC[C@H]2C(=O)O[C@H]([C@H](C)C[C@@H]2CC[C@H](n3nncc3-c3cccc(-c4cnc(N5CCN(C(=O)CCc6cn(CCOCCOCCC(=O)NCCCCn7nc(-c8ccc9oc(N)nc9c8)c8c(N)ncnc87)nn6)CC5)nc4)c3)[C@H](OC)C2)CC(=O)[C@H](C)/C=C(\C)[C@@H](O)[C@@H](OC)C(=O)[C@H](C)C[C@H](C)/C=C/C=C/C=C/1C [Example 49]
- IC50 (P-Akt (S473); MDA-MB-468, 4 h): 31.6 to 1000 nM
- IC50 (P-P70S6K (T389)): < 1 nM
- IC50 (P-4E-BP1 (T37/46); MDA-MB-468, 4 h): < 3.16 nM

Compound: CO[C@H]1C[C@@H]2CC[C@@H](C)[C@@](O)(O2)C(=O)C(=O)N2CCCC[C@H]2C(=O)O[C@H]([C@H](C)C[C@@H]2CC[C@@H](OCCOCc3cn(CCOCCOCCOCCOCCOCCOCCC(=O)NCCCCn4nc(-c5ccc6oc(N)nc6c5)c5c(N(C)C)ncnc54)nn3)[C@H](OC)C2)CC(=O)[C@H](C)/C=C(\C)[C@@H](O)[C@@H](OC)C(=O)[C@H](C)C[C@H](C)/C=C/C=C/C=C/1C [Example 10]
- IC50 (P-Akt (S473); MDA-MB-468, 4 h): > 1000 nM
- IC50 (P-P70S6K (T389)): < 1 nM
- IC50 (P-4E-BP1 (T37/46); MDA-MB-468, 4 h): > 1000 nM

Compound: CO[C@H]1C[C@@H]2CC[C@@H](C)[C@@](O)(O2)C(=O)C(=O)N2CCCC[C@H]2C(=O)O[C@H]([C@H](C)C[C@@H]2CC[C@H](n3cc(COCCOCCOCCOCCC(=O)OCCOCCOCCOCCOCCC(=O)NCCCCn4nc(-c5ccc6oc(N)nc6c5)c5c(N)ncnc54)nn3)[C@H](OC)C2)CC(=O)C(C)/C=C(\C)[C@@H](O)[C@@H](OC)C(=O)[C@H](C)C[C@H](C)/C=C/C=C/C=C/1C (stereo in doubt) [Example 197]
- IC50 (P-Akt (S473); MDA-MB-468, 4 h): 31.6 to 1000 nM
- IC50 (P-P70S6K (T389)): 1 to 10 nM
- IC50 (P-4E-BP1 (T37/46); MDA-MB-468, 4 h): 3.16 to 31.6 nM

Compound: CO[C@H]1C[C@@H]2CC[C@@H](C)[C@@](O)(O2)C(=O)C(=O)N2CCCC[C@H]2C(=O)O[C@H]([C@H](C)C[C@@H]2CC[C@H](n3cc(COCCOCCOCCOCCOCCOCCOCCOCCOCCOCCC(=O)NCCCCn4nc(-c5cc6cc(O)ccc6[nH]5)c5c(N)ncnc54)nn3)[C@H](OC)C2)CC(=O)[C@H](C)/C=C(\C)[C@@H](O)[C@@H](OC)C(=O)[C@H](C)C[C@H](C)/C=C/C=C/C=C/1C [Example 196]
- IC50 (P-Akt (S473); MDA-MB-468, 4 h): 31.6 to 1000 nM
- IC50 (P-P70S6K (T389)): 1 to 10 nM
- IC50 (P-4E-BP1 (T37/46); MDA-MB-468, 4 h): 3.16 to 31.6 nM

Compound: CO/N=C1/C[C@@H]([C@H](C)C[C@@H]2CC[C@H](n3cc(COC(=O)NCCOCCOCCOCCC(=O)NCCOCCOCCOCCC(=O)NCCCCn4nc(-c5ccc6oc(N)nc6c5)c5c(N)ncnc54)nn3)[C@H](OC)C2)OC(=O)[C@@H]2CCCCN2C(=O)C(=O)[C@]2(O)O[C@@H](CC[C@H]2C)C[C@H](OC)/C(C)=C/C=C/C=C/[C@@H](C)C[C@@H](C)C(=O)[C@H](OC)[C@H](O)/C(C)=C/[C@H]1C [Example 153]
- IC50 (P-Akt (S473); MDA-MB-468, 4 h): > 1000 nM
- IC50 (P-P70S6K (T389)): 1 to 10 nM
- IC50 (P-4E-BP1 (T37/46); MDA-MB-468, 4 h): 31.6 to 1000 nM

Compound: CO[C@H]1C[C@@H]2CC[C@@H](C)[C@@](O)(O2)C(=O)C(=O)N2CCCC[C@H]2C(=O)O[C@H]([C@H](C)C[C@@H]2CC[C@@H](O)[C@H](OC)C2)C[C@@H](O)[C@H](C)/C=C(\C)[C@@H](O)[C@@H](OC)C(=NOCc2cn(-c3cnc(N4CCN(c5ncc(C(=O)NCCOCCC(=O)NCCCCn6nc(-c7ccc8oc(N)nc8c7)c7c(N)ncnc76)cn5)CC4)nc3)nn2)[C@H](C)C[C@H](C)/C=C/C=C/C=C/1C [Example 191]
- IC50 (P-Akt (S473); MDA-MB-468, 4 h): > 1000 nM
- IC50 (P-P70S6K (T389)): < 1 nM
- IC50 (P-4E-BP1 (T37/46); MDA-MB-468, 4 h): < 3.16 nM
